Measurements as given in PubChem BioAssay (NCI).
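Five compound concentrations were applied to cells in 96-well plates for 48 hours; endpoints were derived by simple linear interpolation of the resulting dose-response curve. TGI marks complete inhibition of growth.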

What was measured:
Test in all cases: inhibition of tumour cell growth, NCI panel, 48 h
786-0 renal = test system: 786-0 renal
A498 renal = test system: A498 renal
A549 NSCLC = test system: A549 NSCLC
ACHN renal = test system: ACHN renal
CAKI-1 renal = test system: CAKI-1 renal
CCRF-CEM leukemia = test system: CCRF-CEM leukemia
COLO 205 colon = test system: COLO 205 colon
DU-145 prostate = test system: DU-145 prostate
EKVX NSCLC = test system: EKVX NSCLC
HCC-2998 colon = test system: HCC-2998 colon
HCT-116 colon = test system: HCT-116 colon
HCT-15 colon = test system: HCT-15 colon
HL-60(TB) leukemia = test system: HL-60(TB) leukemia
HOP-62 NSCLC = test system: HOP-62 NSCLC
HOP-92 NSCLC = test system: HOP-92 NSCLC
HT29 colon = test system: HT29 colon
IGROV1 ovarian = test system: IGROV1 ovarian
K-562 leukemia = test system: K-562 leukemia
KM12 colon = test system: KM12 colon
LOX IMVI melanoma = test system: LOX IMVI melanoma
M14 melanoma = test system: M14 melanoma
MALME-3M melanoma = test system: MALME-3M melanoma
MCF7 breast = test system: MCF7 breast
MDA-MB-231 breast = test system: MDA-MB-231 breast
MDA-MB-435 = test system: MDA-MB-435
MDA-N = test system: MDA-N
MOLT-4 leukemia = test system: MOLT-4 leukemia
NCI-H226 lung = test system: NCI-H226 lung
NCI-H23 lung = test system: NCI-H23 lung
NCI-H522 lung = test system: NCI-H522 lung
NCI/ADR-RES ovarian = test system: NCI/ADR-RES ovarian
OVCAR-3 ovarian = test system: OVCAR-3 ovarian
OVCAR-4 ovarian = test system: OVCAR-4 ovarian
OVCAR-5 ovarian = test system: OVCAR-5 ovarian
OVCAR-8 ovarian = test system: OVCAR-8 ovarian
PC-3 prostate = test system: PC-3 prostate
RXF 393 renal = test system: RXF 393 renal
SF-295 CNS = test system: SF-295 CNS
SF-539 CNS = test system: SF-539 CNS
SK-MEL-2 melanoma = test system: SK-MEL-2 melanoma
SK-MEL-28 melanoma = test system: SK-MEL-28 melanoma
SK-MEL-5 melanoma = test system: SK-MEL-5 melanoma
SK-OV-3 ovarian = test system: SK-OV-3 ovarian
SN12C renal = test system: SN12C renal
SNB-19 CNS = test system: SNB-19 CNS
SNB-75 CNS = test system: SNB-75 CNS
SW-620 colon = test system: SW-620 colon
T-47D breast = test system: T-47D breast
TK-10 renal = test system: TK-10 renal
U251 CNS = test system: U251 CNS
UACC-257 melanoma = test system: UACC-257 melanoma
UACC-62 melanoma = test system: UACC-62 melanoma
UO-31 renal = test system: UO-31 renal
BT-549 breast = test system: BT-549 breast
HS 578T breast = test system: HS 578T breast
NCI-H460 lung = test system: NCI-H460 lung
RPMI-8226 leukemia = test system: RPMI-8226 leukemia
SF-268 CNS = test system: SF-268 CNS

In the case of `C=CC[n+]1c2ccccc2n2cc([N+](=O)[O-])ccc21`, the TGI (786-0 renal) is reported as greater than 100 µM, the TGI (A498 renal) is reported as 55 µM and the TGI (A549 NSCLC) is reported as greater than 100 µM. The TGI (ACHN renal) was greater than 100 µM, the TGI (CAKI-1 renal) was greater than 100 µM and the TGI (CCRF-CEM leukemia) was 55.3 µM. For the same compound, the TGI (COLO 205 colon) was 26.2 µM, the TGI (DU-145 prostate) was greater than 100 µM and the TGI (EKVX NSCLC) was greater than 100 µM. For the same compound, the TGI (HCC-2998 colon) was greater than 100 µM, the TGI (HCT-116 colon) was 78.7 µM and the TGI (HCT-15 colon) was greater than 100 µM. It also gave a TGI (HL-60(TB) leukemia) of 50.3 µM, a TGI (HOP-62 NSCLC) greater than 100 µM and a TGI (HOP-92 NSCLC) of 46.5 µM. For the same compound, the TGI (HT29 colon) was 39.4 µM, the TGI (IGROV1 ovarian) was 51.5 µM and the TGI (K-562 leukemia) was 59.2 µM. For the same compound, the TGI (KM12 colon) was greater than 100 µM, the TGI (LOX IMVI melanoma) was greater than 100 µM and the TGI (M14 melanoma) was greater than 100 µM. It also gave a TGI (MALME-3M melanoma) of 30.2 µM, a TGI (MCF7 breast) of 79.8 µM and a TGI (MDA-MB-231 breast) greater than 100 µM. It also gave a TGI (MDA-MB-435) of 89.2 µM, a TGI (MDA-N) of 50.7 µM and a TGI (MOLT-4 leukemia) of 67.5 µM. For the same compound, the TGI (NCI-H226 lung) was 69.3 µM, the TGI (NCI-H23 lung) was 43 µM and the TGI (NCI-H522 lung) was 41 µM. It also gave a TGI (NCI/ADR-RES ovarian) greater than 100 µM, a TGI (OVCAR-3 ovarian) of 69.7 µM and a TGI (OVCAR-4 ovarian) greater than 100 µM. The TGI (OVCAR-5 ovarian) was greater than 100 µM, the TGI (OVCAR-8 ovarian) was 86.2 µM and the TGI (PC-3 prostate) was greater than 100 µM. The TGI (RXF 393 renal) was greater than 100 µM, the TGI (SF-295 CNS) was greater than 100 µM and the TGI (SF-539 CNS) was greater than 100 µM. The TGI (SK-MEL-2 melanoma) was 95.8 µM, the TGI (SK-MEL-28 melanoma) was 89.9 µM and the TGI (SK-MEL-5 melanoma) was 42 µM. It also gave a TGI (SK-OV-3 ovarian) greater than 100 µM, a TGI (SN12C renal) of 68.7 µM and a TGI (SNB-19 CNS) greater than 100 µM. For the same compound, the TGI (SNB-75 CNS) was greater than 100 µM, the TGI (SW-620 colon) was greater than 100 µM and the TGI (T-47D breast) was greater than 100 µM. The TGI (TK-10 renal) was greater than 100 µM, the TGI (U251 CNS) was greater than 100 µM and the TGI (UACC-257 melanoma) was 44.6 µM. The TGI (UACC-62 melanoma) was 74.9 µM and the TGI (UO-31 renal) was greater than 100 µM.
Compound `Cc1ccc(S(=O)(=O)Nn2c(O)c(C#N)c(-c3ccc(Cl)cc3)c(C#N)c2=O)cc1` has a TGI (786-0 renal) greater than 100 µM, a TGI (A498 renal) greater than 100 µM and a TGI (A549 NSCLC) greater than 100 µM. It also gave a TGI (ACHN renal) greater than 100 µM, a TGI (BT-549 breast) greater than 100 µM and a TGI (CAKI-1 renal) greater than 100 µM. The TGI (CCRF-CEM leukemia) was greater than 100 µM, the TGI (COLO 205 colon) was greater than 100 µM and the TGI (EKVX NSCLC) was greater than 100 µM. It also gave a TGI (HCC-2998 colon) greater than 100 µM, a TGI (HCT-116 colon) greater than 100 µM and a TGI (HCT-15 colon) greater than 100 µM. It also gave a TGI (HL-60(TB) leukemia) greater than 100 µM, a TGI (HOP-62 NSCLC) greater than 100 µM and a TGI (HOP-92 NSCLC) greater than 100 µM. For the same compound, the TGI (HS 578T breast) was greater than 100 µM, the TGI (HT29 colon) was greater than 100 µM and the TGI (IGROV1 ovarian) was greater than 100 µM. It also gave a TGI (K-562 leukemia) greater than 100 µM, a TGI (KM12 colon) greater than 100 µM and a TGI (LOX IMVI melanoma) greater than 100 µM. The TGI (M14 melanoma) was greater than 100 µM, the TGI (MALME-3M melanoma) was greater than 100 µM and the TGI (MCF7 breast) was greater than 100 µM. For the same compound, the TGI (MDA-MB-231 breast) was greater than 100 µM, the TGI (MDA-MB-435) was greater than 100 µM and the TGI (MDA-N) was greater than 100 µM. The TGI (MOLT-4 leukemia) was greater than 100 µM, the TGI (NCI-H226 lung) was greater than 100 µM and the TGI (NCI-H460 lung) was greater than 100 µM. The TGI (NCI-H522 lung) was greater than 100 µM, the TGI (NCI/ADR-RES ovarian) was greater than 100 µM and the TGI (OVCAR-4 ovarian) was greater than 100 µM. It also gave a TGI (OVCAR-5 ovarian) greater than 100 µM, a TGI (OVCAR-8 ovarian) greater than 100 µM and a TGI (PC-3 prostate) greater than 100 µM. For the same compound, the TGI (RPMI-8226 leukemia) was greater than 100 µM, the TGI (RXF 393 renal) was greater than 100 µM and the TGI (SF-268 CNS) was greater than 100 µM. For the same compound, the TGI (SF-295 CNS) was greater than 100 µM, the TGI (SF-539 CNS) was greater than 100 µM and the TGI (SK-MEL-2 melanoma) was greater than 100 µM. The TGI (SK-MEL-28 melanoma) was greater than 100 µM, the TGI (SK-MEL-5 melanoma) was greater than 100 µM and the TGI (SK-OV-3 ovarian) was greater than 100 µM. It also gave a TGI (SN12C renal) greater than 100 µM, a TGI (SNB-19 CNS) greater than 100 µM and a TGI (SNB-75 CNS) greater than 100 µM. For the same compound, the TGI (SW-620 colon) was greater than 100 µM, the TGI (TK-10 renal) was greater than 100 µM and the TGI (U251 CNS) was greater than 100 µM. It also gave a TGI (UACC-257 melanoma) greater than 100 µM and a TGI (UACC-62 melanoma) greater than 100 µM.
